Consider 12 molecules from PubChem BioAssay (NCI).

Some test systems named below: EKVX NSCLC; HOP-92 NSCLC; HT29 colon; IGROV1 ovarian; KM12 colon; NCI-H23 lung; NCI-H522 lung; OVCAR-4 ovarian; SK-OV-3 ovarian; OVCAR-8 ovarian.
Experiment in all cases: DTP human tumour cell line panel, 48 h

The structures appear in SMILES notation.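 Grown in 96-well plates, cells were treated for 48 hours with each compound at five concentrations. Insufficient inhibition: endpoint recorded as highest concentration tested. At the GI50, growth is halved. The concentration for full growth arrest is given as TGI.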

For orientation: TGI means the concentration at which net growth stops. Higher therefore signals less potent growth arrest. For the molecule `O=C1OC(/C=C/c2ccccc2)C(=O)C1=O` (stereo unspecified), the TGI with EKVX NSCLC, in the experiment on HOP-92 NSCLC, in the experiment on HT29 colon, in the experiment on IGROV1 ovarian, in the experiment on KM12 colon and in the experiment on NCI-H23 lung was greater than 100 µM each time. Besides, the TGI in the experiment on NCI-H522 lung, in the experiment with OVCAR-4 ovarian and in the experiment with SK-OV-3 ovarian was greater than 100 µM each time.
For the molecule `O=c1c2ccc(Br)cc2nc(-c2ccccc2)n1NC1OC(CO)C(O)C(O)C1O` (stereo unspecified), the TGI in the experiment with EKVX NSCLC, in the experiment with HOP-92 NSCLC, in the experiment with HT29 colon, with IGROV1 ovarian, in the experiment with KM12 colon and with NCI-H23 lung was greater than 100 µM each time. Besides, the TGI in the experiment on NCI-H522 lung, in the experiment on OVCAR-4 ovarian, in the experiment on OVCAR-8 ovarian and in the experiment on SK-OV-3 ovarian was greater than 100 µM each time.
Consider `COc1cc(C2C(C(=O)Nc3ccccc3C)=C(C)NC(C)=C2C(=O)Nc2ccccc2C)ccc1O`, for which the concentration for total growth inhibition (TGI) in the experiment with EKVX NSCLC, in the experiment on HOP-92 NSCLC, in the experiment with HT29 colon, in the experiment on IGROV1 ovarian, with KM12 colon and in the experiment with NCI-H23 lung was greater than 100 µM in each case. The TGI in the experiment on NCI-H522 lung, with OVCAR-4 ovarian, in the experiment on OVCAR-8 ovarian and in the experiment on SK-OV-3 ovarian was greater than 100 µM each time.
As a reminder, the GI50 is the concentration at which growth is held to half of that of the control. Take `COc1cc(Nc2nccc(-c3cnn4ncccc34)n2)cc(OC)c1`: the GI50 was 0.113 µM in the experiment on EKVX NSCLC; 0.0317 µM in the experiment with HOP-92 NSCLC; 0.0842 µM with HT29 colon; 0.0916 µM in the experiment on IGROV1 ovarian; 0.0349 µM in the experiment with KM12 colon; 0.0579 µM with NCI-H23 lung. Besides, the GI50 is 0.079 µM with NCI-H522 lung, 0.268 µM with OVCAR-4 ovarian, 0.0802 µM in the experiment on OVCAR-8 ovarian and 0.418 µM in the experiment on SK-OV-3 ovarian. For the same molecule, the TGI in the experiment on EKVX NSCLC is 4.96 µM; in the experiment with HOP-92 NSCLC, 0.151 µM; in the experiment on HT29 colon, 0.709 µM; in the experiment on IGROV1 ovarian, greater than 23.9 µM; with KM12 colon, 0.272 µM; in the experiment with NCI-H23 lung, 0.586 µM. For the same molecule, the TGI in the experiment on NCI-H522 lung is 0.619 µM; in the experiment with OVCAR-4 ovarian it was 1.35 µM; in the experiment with OVCAR-8 ovarian, greater than 12.7 µM; with SK-OV-3 ovarian, 9.84 µM.
As to `Cn1c(=O)c2nc3sc4ccccc4c(=N)n3c2n(C)c1=O`, the TGI in the experiment on EKVX NSCLC, in the experiment on HOP-92 NSCLC, in the experiment on HT29 colon, with IGROV1 ovarian, in the experiment with KM12 colon and with NCI-H23 lung was greater than 100 µM in each case. Also, the TGI in the experiment with NCI-H522 lung, with OVCAR-4 ovarian, with OVCAR-8 ovarian and with SK-OV-3 ovarian was greater than 100 µM in each case.
With `CC1(C)OC(=O)C(c2ccsc2)C(=O)O1`, the TGI in the experiment with EKVX NSCLC, in the experiment with HOP-92 NSCLC, in the experiment on HT29 colon, in the experiment with KM12 colon, in the experiment on NCI-H23 lung and in the experiment with NCI-H522 lung was greater than 100 µM throughout. For the same molecule, the TGI in the experiment with OVCAR-4 ovarian, in the experiment on OVCAR-8 ovarian and with SK-OV-3 ovarian was greater than 100 µM each time.
On to `COc1cc(C2C(Cl)C(=O)N2NC(=O)c2ccccc2O)cc(OC)c1OC` (stereo unspecified), for which the TGI in the experiment on EKVX NSCLC was greater than 10 µM; in the experiment with HOP-92 NSCLC it was greater than 10 µM; with HT29 colon it was 9.06 µM; in the experiment on IGROV1 ovarian, greater than 10 µM; with KM12 colon, greater than 10 µM; with NCI-H23 lung, 9.95 µM. Further, the figures for the TGI in the experiment with NCI-H522 lung, in the experiment on OVCAR-4 ovarian and in the experiment on OVCAR-8 ovarian were 8.21 µM, greater than 10 µM and greater than 10 µM, respectively.
Take `OCC1C2C=CC(O2)[C@H]1CO` (stereo partly specified): the TGI in the experiment with EKVX NSCLC, in the experiment with HOP-92 NSCLC, with HT29 colon, with IGROV1 ovarian, in the experiment on KM12 colon and in the experiment with NCI-H522 lung was greater than 100 µM in each case. Further, the TGI with OVCAR-4 ovarian, in the experiment with OVCAR-8 ovarian and in the experiment on SK-OV-3 ovarian was greater than 100 µM each time.
`OC1/C(=C/c2ccccc2)CNC/C1=C\c1ccccc1` (stereo unspecified): the total growth inhibition concentration (TGI) with EKVX NSCLC, in the experiment on HOP-92 NSCLC, with HT29 colon, in the experiment on IGROV1 ovarian, in the experiment on KM12 colon and in the experiment with NCI-H522 lung was greater than 100 µM each time. Also, the TGI in the experiment on OVCAR-4 ovarian, in the experiment on OVCAR-8 ovarian and in the experiment with SK-OV-3 ovarian was greater than 100 µM in each case.
Turning to `O=C(O)c1cccc(F)c1C(=O)c1ccc2ccccc2c1`, the TGI in the experiment on EKVX NSCLC, in the experiment on HOP-92 NSCLC, in the experiment with HT29 colon, with IGROV1 ovarian, in the experiment on KM12 colon and in the experiment with NCI-H522 lung was greater than 100 µM in each case. Further, the TGI with OVCAR-4 ovarian, with OVCAR-8 ovarian and with SK-OV-3 ovarian was greater than 100 µM in each case.
Turning to `Cc1cc(=O)[nH]c2c1C(=O)C(=O)C=C2`, the GI50 with EKVX NSCLC was 54 µM; in the experiment on HOP-92 NSCLC, 77.9 µM; in the experiment with HT29 colon, 38.2 µM; in the experiment on IGROV1 ovarian, 48.6 µM; with NCI-H23 lung, 21.9 µM; with NCI-H522 lung it was greater than 100 µM. In addition, the figures for the GI50 in the experiment with OVCAR-4 ovarian, in the experiment with OVCAR-8 ovarian and in the experiment on SK-OV-3 ovarian were 25.6 µM, 32.7 µM and greater than 100 µM, respectively. Besides, the TGI in the experiment with EKVX NSCLC is greater than 100 µM; in the experiment on HOP-92 NSCLC, greater than 100 µM; in the experiment with HT29 colon it was greater than 100 µM; with IGROV1 ovarian, greater than 100 µM; with NCI-H23 lung, 48.3 µM; in the experiment on NCI-H522 lung, greater than 100 µM. Also, the figures for the TGI with OVCAR-4 ovarian, with OVCAR-8 ovarian and with SK-OV-3 ovarian were 63.4 µM, 73.9 µM and greater than 100 µM, respectively.
For `COc1ccc2c(c1)[n+](=O)c(C(=O)C/C(=N\NC(=O)C[N+](C)(C)C)C(=O)Nc1cc(Cl)ccc1Cl)c(C)n2O`, the TGI in the experiment on EKVX NSCLC, with HOP-92 NSCLC, in the experiment with HT29 colon, with IGROV1 ovarian, in the experiment with KM12 colon and in the experiment with NCI-H23 lung was greater than 100 µM throughout. Further, the TGI in the experiment with NCI-H522 lung, in the experiment with OVCAR-4 ovarian and with OVCAR-8 ovarian was greater than 100 µM throughout.
